Where “and” joins values, the source holds several entries; their conditions need not be identical. Identical values can stand only once.
Columns and labels:
[1] = target: PI3Kγ (Homo sapiens, UniProt P48736); test: PI3K Inhibition Assay (33P-ATP, PI(4,5)P2 substrate), PI3Kγ; format: biochemical; details: 2 nM final enzyme, 3 μM ATP, 30 μM PI(4,5)P2, 30 min at 25° C.; competitive tight binding Ki fit
Procedure: (§1) Using a Biomek FX from Beckman Coulter, 1.5 μL of each of ten 2.5-fold serial dilutions of a compound of the invention in 100% DMSO was added to an individual well (hereafter, “test well”) in a 96 well polystyrene plate [Corning, Costar Item No. 3697]. One test well also contained 1.5 μL of DMSO with no compound. […] Using a Titertek Multidrop, 50 μL of Reaction Mix [100 mM HEPES pH 7.5, 50 mM NaCl, 10 mM DTT, 0.2 mg/mL BSA, 60 μM phosphatidylinositol(4,5)-bisphosphate diC16 (PI(4,5)P2; Avanti Polar Lipids, Cat. No. 840046P) and PI3K isoform of interest (see Table 3 for isoform concentrations)] was added to each well. To initiate the reaction, 50 μL of ATP Mix [20 mM MgCl2, 6 μM ATP (100 μCi/μmole ^33P-ATP)] was added each well, followed by incubating the wells for 30 min. at 25° C. Final concentrations in each well were 50 mM HEPES 7.5, 10 mM MgCl2, 25 mM NaCl, 5 mM DTT, 0.1 mg/mL BSA, 30 μM PI(4,5)P2, 3 μM ATP, and the PI3K isoform of interest (see Table 3). Final compound concentrations in each well ranged from 10 μM to 1 nM.
(§2) After incubation, the reactions in each well were quenched by addition of 50 μL of stop solution [30% TCA/Water, 10 mM ATP]. […] 50 μL of scintillation fluid was added to each well and the plate read on a Perkin-Elmer TopCount™ NXT liquid scintillation counter to obtain ^33P-counts representing inhibition values. […]

[2] = target: PI3Kα (Homo sapiens, UniProt P42336); test: PI3K Inhibition Assay (33P-ATP, PI(4,5)P2 substrate), PI3Kα; format: biochemical; details: 2 nM final enzyme, 3 μM ATP, 30 μM PI(4,5)P2, 30 min at 25° C.; competitive tight binding Ki fit
PI3Kα, sequence (P42336 whole entry, species assumed): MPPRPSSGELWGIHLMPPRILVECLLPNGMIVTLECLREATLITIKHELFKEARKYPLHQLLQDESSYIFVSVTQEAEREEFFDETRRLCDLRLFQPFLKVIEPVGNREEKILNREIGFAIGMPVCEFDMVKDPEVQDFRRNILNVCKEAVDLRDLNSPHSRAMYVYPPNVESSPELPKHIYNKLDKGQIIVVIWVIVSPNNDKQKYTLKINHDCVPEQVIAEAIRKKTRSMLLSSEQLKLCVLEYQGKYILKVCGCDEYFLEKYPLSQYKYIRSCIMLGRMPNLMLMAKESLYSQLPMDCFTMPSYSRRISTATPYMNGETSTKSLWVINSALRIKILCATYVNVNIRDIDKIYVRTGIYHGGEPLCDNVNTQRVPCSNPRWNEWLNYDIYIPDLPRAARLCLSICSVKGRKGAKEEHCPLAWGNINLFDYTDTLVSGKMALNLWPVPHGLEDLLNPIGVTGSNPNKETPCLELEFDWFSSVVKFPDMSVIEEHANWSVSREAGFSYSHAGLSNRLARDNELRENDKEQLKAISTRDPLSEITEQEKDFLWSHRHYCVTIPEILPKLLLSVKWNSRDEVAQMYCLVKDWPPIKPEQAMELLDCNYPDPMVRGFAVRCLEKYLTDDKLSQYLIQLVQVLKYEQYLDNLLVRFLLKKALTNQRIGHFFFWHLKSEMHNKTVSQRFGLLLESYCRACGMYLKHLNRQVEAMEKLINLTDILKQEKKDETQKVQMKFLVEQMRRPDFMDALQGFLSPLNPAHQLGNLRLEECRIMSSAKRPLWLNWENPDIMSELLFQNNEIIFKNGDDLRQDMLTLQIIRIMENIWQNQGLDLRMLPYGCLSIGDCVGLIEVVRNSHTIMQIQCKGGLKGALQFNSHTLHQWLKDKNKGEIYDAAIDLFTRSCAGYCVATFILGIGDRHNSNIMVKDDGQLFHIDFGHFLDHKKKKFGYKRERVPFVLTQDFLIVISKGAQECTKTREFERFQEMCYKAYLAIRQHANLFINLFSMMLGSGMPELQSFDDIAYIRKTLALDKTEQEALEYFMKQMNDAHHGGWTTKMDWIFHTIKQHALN
PI3Kα, sequence (P27986 whole entry partner, species assumed): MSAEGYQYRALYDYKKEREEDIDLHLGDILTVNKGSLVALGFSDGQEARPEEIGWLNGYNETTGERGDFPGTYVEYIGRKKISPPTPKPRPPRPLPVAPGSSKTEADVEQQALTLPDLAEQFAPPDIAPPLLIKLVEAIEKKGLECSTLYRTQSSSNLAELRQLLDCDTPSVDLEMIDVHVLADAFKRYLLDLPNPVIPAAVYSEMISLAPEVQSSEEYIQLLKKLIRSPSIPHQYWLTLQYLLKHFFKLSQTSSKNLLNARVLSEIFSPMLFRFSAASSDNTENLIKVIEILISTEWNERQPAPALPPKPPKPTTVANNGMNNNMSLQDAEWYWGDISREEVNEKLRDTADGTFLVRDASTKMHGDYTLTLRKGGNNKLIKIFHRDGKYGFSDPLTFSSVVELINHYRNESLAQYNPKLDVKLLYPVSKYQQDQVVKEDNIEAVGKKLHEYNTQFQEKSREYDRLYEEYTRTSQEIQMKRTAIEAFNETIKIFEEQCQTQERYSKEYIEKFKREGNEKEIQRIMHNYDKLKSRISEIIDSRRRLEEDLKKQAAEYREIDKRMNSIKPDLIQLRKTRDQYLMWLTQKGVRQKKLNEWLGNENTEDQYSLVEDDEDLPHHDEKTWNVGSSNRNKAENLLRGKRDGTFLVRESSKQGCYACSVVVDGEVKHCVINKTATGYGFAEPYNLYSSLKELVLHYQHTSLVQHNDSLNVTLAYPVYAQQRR
Procedure: as §1, §2

PI3Kγ, sequence (P48736 whole entry, species assumed, canonical isoform): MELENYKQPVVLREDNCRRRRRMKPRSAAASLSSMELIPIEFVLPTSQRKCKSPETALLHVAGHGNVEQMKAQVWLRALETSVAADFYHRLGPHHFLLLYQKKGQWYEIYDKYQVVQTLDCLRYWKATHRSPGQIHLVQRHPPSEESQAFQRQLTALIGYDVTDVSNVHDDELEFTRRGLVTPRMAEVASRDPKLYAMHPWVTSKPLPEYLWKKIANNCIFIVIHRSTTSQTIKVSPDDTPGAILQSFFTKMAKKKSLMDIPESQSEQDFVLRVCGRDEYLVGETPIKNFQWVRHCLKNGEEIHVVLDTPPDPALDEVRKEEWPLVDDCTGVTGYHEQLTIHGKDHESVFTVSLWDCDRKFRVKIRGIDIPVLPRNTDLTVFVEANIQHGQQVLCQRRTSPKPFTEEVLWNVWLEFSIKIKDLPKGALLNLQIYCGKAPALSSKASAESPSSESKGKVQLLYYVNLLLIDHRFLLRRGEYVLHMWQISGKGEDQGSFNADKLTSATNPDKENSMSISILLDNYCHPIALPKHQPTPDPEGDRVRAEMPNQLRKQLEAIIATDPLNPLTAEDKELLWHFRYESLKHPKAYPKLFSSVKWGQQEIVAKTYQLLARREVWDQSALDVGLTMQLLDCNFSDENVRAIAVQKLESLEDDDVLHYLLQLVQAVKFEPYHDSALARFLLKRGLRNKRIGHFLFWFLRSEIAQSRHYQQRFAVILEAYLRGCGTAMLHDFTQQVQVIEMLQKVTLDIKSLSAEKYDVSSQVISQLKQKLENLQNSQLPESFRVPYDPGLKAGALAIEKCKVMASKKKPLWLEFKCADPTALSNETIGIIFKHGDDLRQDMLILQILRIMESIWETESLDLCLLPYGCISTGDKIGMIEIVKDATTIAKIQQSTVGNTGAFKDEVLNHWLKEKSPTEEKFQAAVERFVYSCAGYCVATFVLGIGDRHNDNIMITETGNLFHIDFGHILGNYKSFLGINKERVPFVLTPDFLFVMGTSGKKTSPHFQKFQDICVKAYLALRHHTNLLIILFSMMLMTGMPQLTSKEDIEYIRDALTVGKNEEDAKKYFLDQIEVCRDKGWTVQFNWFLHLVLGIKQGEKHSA

| Structure (SMILES) | Ki [1] | Ki [2] |
| --- | --- | --- |
| CCN(CC)C(=O)c1cccc(Nc2nc3ccc(-c4cncc(OC)c4)cc3s2)n1 [Compound 110] | 3 nM and < 100 nM | – |
| COc1cc(-c2ccc3nc(Nc4cnccn4)sc3n2)cnc1OC [Compound 37] | – | 2 nM and < 100 nM |
